Reference: patent publication US12118414B2, “BCL-2 proteins degraders for cancer treatment” (BioVentures, LLC, priority 2018, dated 2024)

What was measured:
MOLT4 cells = experiment: MTS cell viability assay in MOLT4 cells
Method: (§5) Cell viability was measured by tetrazolium-based MTS assay and IC50 was calculated as a percentage of vehicle-treated cells.

Bcl-w = target: T1, Bcl-w (Homo sapiens, UniProt Q92843); experiment: AlphaLISA competitive binding assay, Bcl-w; settings: His-tagged Bcl-w, biotin-tagged BIM peptide, 24 h incubation
T1 construct: purchased Sigma-Aldrich
T1 sequence (Q92843 1-193): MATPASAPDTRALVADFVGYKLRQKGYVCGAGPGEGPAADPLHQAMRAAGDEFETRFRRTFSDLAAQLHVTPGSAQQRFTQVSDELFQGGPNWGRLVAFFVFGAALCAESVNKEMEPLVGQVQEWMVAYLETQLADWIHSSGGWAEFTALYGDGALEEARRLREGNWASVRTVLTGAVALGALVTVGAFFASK
Method: (§1) Purified recombinant His-tagged Bcl-xL/Bcl-2/Bcl-w (Sigma-Aldrich, St. Louis, MO) were incubated with increasing concentrations of compound #55 and a fixed concentration of biotin-tagged Bad (for Bcl-xL) or BIM peptides (for Bcl-2 and Bcl-w) (AnaSpec, Fremont, CA) to a final volume of 40 µL in 96-well PCR plate. After 24 h incubation, 5 μL 6×His-Acceptor beads (final concentration 20 μg/mL) (PerkinElmer, Houston, TX) were added to each well and incubated for 1 h. Thereafter, 5 μL streptavidin-donor beads were added (final concentration 20 μg/mL) (PerkinElmer) to each well and incubated for 0.5 h. At the end of the incubation period, 17 μL of each sample was transferred in adjacent wells of 384-well proxy plate. The plate was scanned using Alpha program on Biotek's Synergy Neo2 multi-mode plate reader. The inhibition constant (Ki) was calculated using non-linear regression, one site, competitive binding, Fit Ki function on GraphPad Prism based on experimentally determined Kd for each protein/peptide pair.

Bcl-xL [1] = target: T2, Bcl-xL (Homo sapiens, UniProt Q07817); experiment: Western blot Bcl-XL degradation in additional cancer cells; type: cell-based; set-up: endogenous in cells; settings: RS4; 11, EJM, H929 (16 h), H146 (48 h); fixed concentration
T2 sequence (Q07817 whole entry): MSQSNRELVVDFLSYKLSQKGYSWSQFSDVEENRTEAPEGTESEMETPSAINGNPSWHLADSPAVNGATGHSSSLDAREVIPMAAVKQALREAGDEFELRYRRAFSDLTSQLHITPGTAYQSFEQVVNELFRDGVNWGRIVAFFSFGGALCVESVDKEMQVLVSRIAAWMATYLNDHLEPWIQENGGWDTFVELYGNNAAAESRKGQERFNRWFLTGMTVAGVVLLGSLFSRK
Method: (§2) MOLT4 cells and human platelets were incubated with increasing concentrations of compound #55 for 16 h. The cells were harvested and lysed in RIPA lysis buffer supplemented with protease and phosphatase inhibitor cocktails. An equal amount of protein (20 μg/lane) was resolved on a pre-cast 4-20% SDS-PAGE gel. Proteins were subsequently transferred to NOVEX PVDF membranes by electrophoresis. The membranes were blocked in blocking buffer (5% non-fat dry milk in TBS-T), and incubated with primary antibodies (at optimized concentrations) overnight at 4° C. After three washings in TBS-T, the membranes were incubated with an appropriate HRP-conjugated secondary antibody for 1 h at room temperature. After extensive washing for three times, the proteins of interest were detected with ECL western blotting detection reagents and recorded with autoradiography (Pierce Biotech, Rockford, IL, USA). […] The relative band intensity was measured using ImageJ software and normalized to b-actin. The DC50 (concentration with 50% degradation) was calculated using GraphPad Prism. […] Bcl-2 levels were not detected, whereas Mcl-1 was unaffected with compound #55 treatment in MOLT4 cells (FIGS. 1B and 1D). […]
(§3) Tumor cells were incubated with a fixed concentration of compound #55 for 16 h (RS4; 11, EJM, H929) or 48 h (H146) and Bcl-2/Bcl-xL/Mcl-1 levels were determined using Western blot analysis as described above.

[2] = system: caspase-3 and poly (ADP) ribose polymerase (PARP); experiment: Western blot of cleaved caspase-3 and PARP in MOLT4 cells; type: cell-based, human; settings: 0.1 and 0.3 μM, 24 h
Method: At the end of incubation, cells were harvested for western blot analysis of cleaved and full length caspase-3 and poly (ADP) ribose polymerase (PARP). The antibodies for cleaved caspase-3 (Cat #9661), full length caspase-3 (Cat #9662), and PARP (Cat #9532) were purchased from Cell Signaling Technology. A single Anti-PARP antibody used can detect both cleaved and full length PARP.

RS4; 11 cells = experiment: MTS cell viability assay in RS4; 11 cells; type: cell-based, human
Method: as §5

EJM cells = experiment: MTS cell viability assay in EJM cells; type: cell-based, human
Method: Multiple Myeloma EJM cells were incubated either with 250 nM S63845 (Mcl-1 inhibitor) or 125 nM compound #55 or the combination of both for 72 h. The cell viability was measured using MTS assay. The combination indices (CI) were calculated using formula CI=AB/(A×B); where AB is the percent cell inhibition by the combination whereas A and B are the percent cell inhibition by individual agents. CI<1 indicates synergism, whereas CI<0.3 indicates strong synergism.

Bcl-2 [3] = target: T3, Bcl-2 (Homo sapiens, UniProt P10415); experiment: Western blot Bcl-2 levels in additional cancer cells; type: cell-based; set-up: endogenous in cells; host or cells: RS4;11, EJM, H929, H146; settings: RS4; 11, EJM, H929 (16 h), H146 (48 h); fixed concentration
T3 sequence (P10415 whole entry): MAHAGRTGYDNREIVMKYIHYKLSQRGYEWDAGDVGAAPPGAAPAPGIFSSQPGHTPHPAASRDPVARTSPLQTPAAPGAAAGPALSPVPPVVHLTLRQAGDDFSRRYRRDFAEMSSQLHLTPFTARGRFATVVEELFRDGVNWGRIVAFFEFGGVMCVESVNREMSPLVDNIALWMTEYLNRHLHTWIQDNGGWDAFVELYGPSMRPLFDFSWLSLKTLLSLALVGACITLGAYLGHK
Method: as §2, §3

Mcl-1 [4] = target: T4, Mcl-1 (Homo sapiens, UniProt Q07820); experiment: Western blot Mcl-1 levels in MOLT4 cells; type: cell-based; set-up: endogenous in cells; settings: 16 h
T4 sequence (Q07820 whole entry): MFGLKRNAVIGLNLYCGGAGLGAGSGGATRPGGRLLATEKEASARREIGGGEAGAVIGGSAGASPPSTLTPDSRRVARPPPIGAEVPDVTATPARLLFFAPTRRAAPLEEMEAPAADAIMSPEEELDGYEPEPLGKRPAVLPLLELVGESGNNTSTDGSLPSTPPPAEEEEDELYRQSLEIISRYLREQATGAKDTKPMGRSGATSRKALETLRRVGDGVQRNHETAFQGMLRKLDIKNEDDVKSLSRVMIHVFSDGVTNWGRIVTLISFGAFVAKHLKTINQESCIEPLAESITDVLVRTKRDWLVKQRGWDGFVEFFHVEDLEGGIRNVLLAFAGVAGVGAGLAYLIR
Method: MOLT4 cells and human platelets were incubated with increasing concentrations of compound #55 for 16 h. The cells were harvested and lysed in RIPA lysis buffer supplemented with protease and phosphatase inhibitor cocktails. An equal amount of protein (20 μg/lane) was resolved on a pre-cast 4-20% SDS-PAGE gel. Proteins were subsequently transferred to NOVEX PVDF membranes by electrophoresis. The membranes were blocked in blocking buffer (5% non-fat dry milk in TBS-T), and incubated with primary antibodies (at optimized concentrations) overnight at 4° C. After three washings in TBS-T, the membranes were incubated with an appropriate HRP-conjugated secondary antibody for 1 h at room temperature. After extensive washing for three times, the proteins of interest were detected with ECL western blotting detection reagents and recorded with autoradiography (Pierce Biotech, Rockford, IL, USA). The primary antibodies for Bcl-xL (Cat #2762), Bcl-2 (Cat #2872), Mcl-1 (Cat #5453) and β-actin (Cat #4970) were purchased from Cell Signaling technology. The relative band intensity was measured using ImageJ software and normalized to b-actin. The DC50 (concentration with 50% degradation) was calculated using GraphPad Prism. […] Bcl-2 levels were not detected, whereas Mcl-1 was unaffected with compound #55 treatment in MOLT4 cells (FIGS. 1B and 1D). […]

H929 cells = experiment: MTS cell viability assay in H929 cells; type: cell-based, human; settings: Mcl-1-dependent H929 cells, 72 h
Method: as §5

Bcl-xL [5] = target: T2, Bcl-xL; experiment: Western blot Bcl-xL degradation assay in human platelets; type: cell-based; set-up: endogenous in cells; host or cells: MOLT4; settings: 16 h
Method: (§4) MOLT4 cells and human platelets were incubated with increasing concentrations of compound #55 for 16 h. The cells were harvested and lysed in RIPA lysis buffer supplemented with protease and phosphatase inhibitor cocktails. An equal amount of protein (20 μg/lane) was resolved on a pre-cast 4-20% SDS-PAGE gel. Proteins were subsequently transferred to NOVEX PVDF membranes by electrophoresis. The membranes were blocked in blocking buffer (5% non-fat dry milk in TBS-T), and incubated with primary antibodies (at optimized concentrations) overnight at 4° C. After three washings in TBS-T, the membranes were incubated with an appropriate HRP-conjugated secondary antibody for 1 h at room temperature. After extensive washing for three times, the proteins of interest were detected with ECL western blotting detection reagents and recorded with autoradiography (Pierce Biotech, Rockford, IL, USA). The primary antibodies for Bcl-xL (Cat #2762), Bcl-2 (Cat #2872), Mcl-1 (Cat #5453) and β-actin (Cat #4970) were purchased from Cell Signaling technology. The relative band intensity was measured using ImageJ software and normalized to b-actin. The DC50 (concentration with 50% degradation) was calculated using GraphPad Prism. […] Bcl-2 levels were not detected, whereas Mcl-1 was unaffected with compound #55 treatment in MOLT4 cells (FIGS. 1B and 1D). […] The DC50 and Dmax values of compound #55 in platelets were >3 μM and 26%, respectively (FIG. 1E).

Mcl-1 [6] = target: T4, Mcl-1; experiment: Western blot Mcl-1 levels in additional cancer cells; type: cell-based; set-up: endogenous in cells; host or cells: RS4;11, EJM, H929, H146; settings: RS4; 11, EJM, H929 (16 h), H146 (48 h); fixed concentration
Method: as §2, §3

Bcl-xL [7] = target: T2, Bcl-xL; experiment: AlphaLISA competitive binding assay, Bcl-xL; set-up: purchased Sigma-Aldrich; settings: His-tagged Bcl-xL, biotin-tagged Bad peptide, 24 h incubation
Method: as §1

Bcl-xL [8] = target: T2, Bcl-xL; experiment: Western blot Bcl-xL degradation assay in MOLT4 cells; type: cell-based; set-up: endogenous in cells; host or cells: MOLT4
Method: as §4
MOLT4 cells were incubated with a fixed concentration of compound #55 for increasing time points. In another experiment, cells were treated for 16 hours followed by drug withdrawal and further cultured for increasing time-points before harvesting them for Bcl-xL degradation assays. Bcl-xL levels were measured using Western blot analysis as described above. The relative band intensity was measured using ImageJ software and normalized to equal loading control β-actin.
Cell viability was measured by MTS assay.
Third, we sought to confirm that compound #55-induced Bcl-xL degradation depends on proteasomal activity.
Fourth, we sought to confirm that Bcl-xL degardation by compound #55 requires the binding with Bcl-xL protein.

H146 cells = experiment: MTS cell viability assay in H146 cells; type: cell-based, human
Method: Small cell lung cancer H146 cells were incubated either with 500 nM ABT-199 (Bcl-2 inhibitor) or 125 nM compound #55 or the combination of both for 72 h. The cell viability was measured using MTS assay. The combination indices (CI) were calculated using formula CI=AB/(A×B); where AB is the percent cell inhibition by the combination whereas A and B are the percent cell inhibition by individual agents. CI<1 indicates synergism, whereas CI<0.3 indicates strong synergism.

Bcl-2 [9] = target: T3, Bcl-2; experiment: AlphaLISA competitive binding assay, Bcl-2; set-up: purchased Sigma-Aldrich; settings: His-tagged Bcl-2, biotin-tagged BIM peptide, 24 h incubation
Method: as §1

platelets = experiment: Platelet toxicity; type: cell-based; settings: up to 3 μM; data not shown

Compound: CC1(C)CCC(c2ccc(Cl)cc2)=C(CN2CCN(c3ccc(C(=O)NS(=O)(=O)c4ccc(N[C@H](CCN5CCOCC5)CSc5ccccc5)c(S(=O)(=O)C(F)(F)F)c4)cc3)CC2)C1 [ABT-263, navitoclax, reference compound]
- cell killing in the presence of VHL-L (MOLT4 cells; MOLT4 cells, with 1 μM and 2 μM VHL-L, 72 h): could not further induce the cell killing in the presence of VHL-L
- Ki (Bcl-w): 33.5 nM

Compound: (2S,4R)-1-((S)-2-(7-(4-((R)-3-((4-(N-(4-(4-((4′- Chloro-4,4-dimethyl- 3,4,5,6-tetrahydro-[1,1′-biphenyl]-2- yl)methyl)piperazin-1-yl)benzoyl)sultamoyl)-2- ((trifluoromethyl)sulfonyl)phenyl)amino)-4- (phenylthio)butyl)piperazin-1-yl)-7- oxoheptanamido)-3,3-dimethylbutanoyl)-4-hydroxy- N-((S)-1-(4-(4-methylthiazol-5- yl)phenyl)ethyl)pyrrolidine-2-carboxamide [compound #55]
- Bcl-XL degradation (Bcl-xL [1]): capable of degrading Bcl-XL in all these cell lines
- cleavage of caspase-3 and PARP [2]: induced cleavage of caspase-3 and PARP
- cleavage of caspase-3 and PARP compared with ABT263 [2]: more pronounced than ABT263
- IC50 (RS4; 11 cells; Bcl-2-dependent RS4, 72 h, MTS, read-out: IC50 loss of cell viability): 230 nM
- effect on cell viability compared with ABT-263 (RS4; 11 cells; RS4, 72 h): less prominent than ABT-263
- loss of cell viability in combination with S63845 (EJM cells; EJM cells, 125 nM compound #55 + 250 nM S63845, 72 h): synergistically induce the loss of cell viability
- cellular activity (EJM cells; Mcl-1-dependent EJM cells, 72 h): did not show any significant cellular activity
- effect on Bcl-2 levels (Bcl-2 [3]): sparing Bcl-2 and Mcl-1
- Mcl-1 levels (Mcl-1 [4]): unaffected
- cellular activity (H929 cells): did not show any significant cellular activity
- Bcl-xL levels (Bcl-xL [5]): did not affect Bcl-xL levels
- DC50 (Bcl-xL [5]): > 3000 nM
- Dmax of Bcl-xL (Bcl-xL [5]): 26%
- cell killing in the presence of VHL-L (MOLT4 cells; MOLT4 cells pretreated with 1 and 2 μM VHL-L for 1 h, then 72 h): abrogated
- IC50 (MOLT4 cells; read-out: IC50 cell viability, Bcl-XL-dependent MOLT4 cells, 72 h, MTS): 52 nM
- effect on Mcl-1 levels (Mcl-1 [6]): sparing Bcl-2 and Mcl-1
- Ki (Bcl-xL [7]): 12.8 nM
- Bcl-xL degradation in ABT263-pretreated cells (Bcl-xL [8]; 1 μM ABT-263 pretreatment, 0.1 and 1 μM, 16 h): did not induce Bcl-xL degradation
- Bcl-xL degradation in MG132-pretreated cells (Bcl-xL [8]; 1 μM MG132 pretreatment, 0.1 and 1 μM, 6 h): did not induce Bcl-xL degradation
- Dmax (maximum degradation) of Bcl-xL (Bcl-xL [8]; 16 h): 90.8%
- DC50 (Bcl-xL [8]; 16 h, read-out: DC50 (concentration with 50% degradation) of Bcl-xL): 63 nM
- Bcl-xL degradation in VHL-L-pretreated cells (Bcl-xL [8]; VHL-L pretreatment, then 16 h): did not induce Bcl-xL degradation
- time at which significant Bcl-xL degradation starts (Bcl-xL [8]; fixed concentration, increasing time points): 2 h
- Bcl-xL degrading activity after drug withdrawal (Bcl-xL [8]; treated 16 hours then drug withdrawal): able to sustain its Bcl-xL degrading activity for prolonged period after drug withdrawal
- Ki (Bcl-w): 301 nM
- IC50 (H146 cells; Bcl-2/Bcl-xL-dependent H146 cells, 72 h, MTS, read-out: IC50 loss of cell viability): 160 nM
- loss of cell viability in combination with ABT-199 (H146 cells; H146 cells, 125 nM compound #55 + 500 nM ABT-199, 72 h, MTS): synergistically induce the loss of cell viability
- effect on cell viability compared with ABT-263 (H146 cells; H146 cells, 72 h): less prominent than ABT-263
- Ki (Bcl-2 [9]): 1.82 nM
- platelet toxicity (platelets): did not induce any significant platelet toxicity
